Columns and labels:
[1] = tested on: HT-29 (colon); assay: Tumor cell growth (sulforhodamine B) after chemoprotectant regimen and paclitaxel; type: cell-based, human; details: forskolin (100 µM) plus PDE4 inhibitor (1 µM), then paclitaxel (100 nM) 24 hours; versus DMSO pretreatment
Protocol: (§1) The human tumor cell lines HT-29 (colon: ATCC# HTB 38), RKO (colon, ATCC# HTB 130), lines A549 (lung, ATCC# CCL 185), and MDA468 (breast, ATCC# HTB 132) were obtained from the American Type Culture Collection and maintained in DMEM containing 10% FBS. Tumor cells were grown at 37°C in a humidified atmosphere of 5% CO2. Adherent tumor cells were seeded into 96 well plates and incubated for six hours to allow for attachment. After six hours the chemoprotectants forskolin (100 µM) plus rolipram (1 µM) or forskolin (100 µM) plus Ariflo™ (1µM) were added. After overnight incubation, paclitaxel (100 nM) was added for 24 hours. Cells were then washed free of chemoprotectants and paclitaxel, placed in fresh media, and grown for 5 days. Growth was measured daily using sulforhodamine B (Skehan P. et. al., (1990), J. Nat'l Cancer Inst 82:1107-12). The results are depicted in Figure 8.

[2] = tested on: RKO (colon); assay: as above; type: cell-based, human; details: forskolin (100 µM) plus PDE4 inhibitor (1 µM), then paclitaxel (100 nM) 24 hours; versus DMSO pretreatment
Protocol: as §1

[3] = tested on: A549 (lung); assay: as above; type: cell-based, human; details: forskolin (100 µM) plus PDE4 inhibitor (1 µM), then paclitaxel (100 nM); cell line not completely inhibited by paclitaxel
Protocol: as §1

[4] = Cell based assays utilized herein, PDE4 inhibitor used alone; details: without forskolin
[5] = tested on: expanded CD34^+ stem cells; assay: Flow cytometric (FACS) evaluation of percent live cells after chemoprotectant pretreatment and paclitaxel; type: cell-based, Human; details: pretreatment rolipram (1µM) plus Forskolin (100 µM) 24 hours
Protocol: Prevention of myelosuppression was shown by protection of neutrophil progenitors by PDE4 inhibitors from the cytotoxic effects of cancer chemotherapeutic agents. In Examples 2-7 a variety of chemically distinct PDE4 inhibitors were tested for their ability to protect neutrophil progenitors. Three methods, more completely described in the following examples, were utilized for a determination of cell survival and ability to produce daughter cells of primary human neutrophil progenitors: (1) a FACS assay which determined the percent of live cells by size and granularity; (2) a colony forming assay which measured the number of CFU-GM progenitors (a specific early stage neutrophil progenitor); and (3) a cell-based EUSA which measured CD15 antigen the value of which was proportional to the number of neutrophil lineage cells. This assay allows evaluation of neutrophil progenitors (cells that can divide and produce daughter neutrophil-lineage cells) at multiple stages of differentiation.
Human bone marrow samples were collected from presumed healthy human donors following informed consent through an agreement with Duke University Medical Center, Durham, North Carolina. Mononuclear cells were isolated using a 1.077 Ficoll-Paque gradient according to the published procedure (Dornsife, RE et al., Antimicrob Agents Chemother, 35: 322-328, (1991)) and were suspended in HBSS with 2% FBS at a concentration of 5 X 10^7 cells/ml. CD34^+ stem cells were isolated by "StemSep™ CD34^+ stem cell selection kit" by following the instructions from the manufacturer (Stem Cell Technologies). Cells were adjusted to 1 x 10^6 cells/ml in complete growth media and maintained in a humidified, 5% CO2 incubator. The complete growth media was IMDM supplemented with 20% FBS, 1% penicillin-streptomycin antibiotics, the recombinant human cytokines (Biosource)Flt-3/Flk-2 ligand (50 ng/ml), stem cell factor (50 ng/ml), interleukin-3 (40ng/ml), and G-CSF (10 ng/ml). The cells were maintained at a density of between 0.5 and 3 x 10^5 cells/ml. The CD34+ stem cells were expanded in culture over an average range of 11 to 23 days. Five groups of expanded CD34+ cells were treated with rolipram (1µM), plus Forskolin (100 µM), an adenylate cyclase activator, for 24 hours and five groups of expanded CD34+ cells were treated with DMSO for 24 hours. After 24 hours, to the 5 sets of cells that were treated with DMSO and 5 groups of cells treated with rolipram plus forskolin, paclitaxel was added to give final concentrations of 0, 30, 100, 300, and 600 nM of paclitaxel respectively and incubated for an additional 24 hours. After the 48 hours of treatment, the cells were counted, washed and re-suspended in PBS with 2% FBS. […] The prepared cells were analyzed on a BD FACSort flow cytometer. […]

Structure (SMILES) | effect of chemoprotectant regimen on inhibition of tumour cell growth by paclitaxel [1] | effect of chemoprotectant regimen on inhibition of tumour cell growth by paclitaxel [2] | effect of chemoprotectant regimen on inhibition of tumour cell growth by paclitaxel [3] | protective effect when used alone [4] | surviving cell fractions ([5]; then paclitaxel 30nM 24 hours, DMSO pretreatment gave 45%) | surviving cell fractions ([5]; then paclitaxel 100nM 24 hours, DMSO pretreatment gave 27%) | surviving cell fractions ([5]; then paclitaxel 300nM 24 hours, DMSO pretreatment gave 23%) | surviving cell fractions ([5]; then paclitaxel 600nM 24 hours, DMSO pretreatment gave 18%)
COc1ccc([C@]2(C#N)CC[C@@H](C(=O)O)CC2)cc1OC1CCCC1 [Ariflo™, cis-4-cyano-4-[3-(cyclopentyloxy)-4-methoxyphenyl]cyclohexane-1-carboxylic acid] | no effect on the inhibition of tumour cell growth | no effect on the inhibition of tumour cell growth | no additional protection |  |  |  |  | 
COc1ccc(C2CNC(=O)C2)cc1OC1CCCC1 (centres unmarked) [Rolipram, rolipram] | no effect on the inhibition of tumour cell growth | no effect on the inhibition of tumour cell growth | no additional protection | little protective effect | 86% | 81% | 63% | 59%

Reference: patent publication EP1289557B1, “CANCER TREATMENT COMPOSITION CONTAINING AN ANTI-NEOPLASTIC AGENT AND A PDE4 INHIBITOR” (GLAXO GROUP LIMITED, priority 2000, dated 2001)
